Results taken from EP4483904A1, “POLYOXOMETALATES AS MEMBRANE CARRIERS” (Universität Wien, priority 2023, dated 2025).

Tests used:
[1] = U-tube transport experiments (CF transport through chloroform layer); conditions: CF 100 µM, POM 50 µM, heptaArg 10 µM
Procedure: The U-tubes were house-made, similar to those of Rebek and Matile consisting in a small beaker with a central glass barrier, separating the two aqueous layers, cis (sampling phase) and trans (receiving phase), but allowing an interface chloroform layer below the cis and trans phases. 3 mL CHCl3 are placed into the U-tube and 1 mL of the cis (combinations of carrier (POM), cargo (heptaArg) and CF in buffer) and trans (1 mL buffer) phases were added. The organic phase was stirred at 700 rpm at room temperature. Aliquots (25 µL) from the trans phase were taken at different times, 400 µL of buffer were added and measured by fluorescence.
In the U-tube experiments, the trans phase contained only buffer, and the cis phase is loaded with combinations of CF, carrier (POM) and cargo (heptaArg). Aliquots of the trans phase are taken and evaluated by fluorescence at different times. The trans phase is initially (t= 0) nonfluorescent, but the transport of CF from the cis phase through the chloroform barrier leads to a fluorescence signal for successful transport. […] In the ternary mixture, however, as expected, highly efficient transport is observed. This is consistent with the transport of a POM•heptaArg•CF complex through the organic phase. […]

CHO-K1 cells = assay: Confocal imaging of FITC-Arg8 cellular uptake; format: cell-based; conditions: 4 µM FITCArg8, 5 and 10 µM carrier, 1 h, fixed cells, preliminary
Procedure: For confocal microscopy experiments, CHO-K1 cells were seeded into 12-well plates (Eppendorf) at a density of 1×10^5 cells/well (per 1 mL) and incubated for 24 h in Ham's F-12 containing 10 % (v/v) fetal bovine serum at 37 °C in a 5 % CO2. The cells were washed twice with PBS, and then incubated with POMs and FITC-Arg8 (4 µM) for 1 h at 37 °C, cells were washed twice with Hank's Balanced Salt solution containing 100 µg/mL heparin, twice again with PBS and fixed with 1 mL cold 4 % paraformaldehyde for 20 min. The cells were rewashed twice with PBS and subsequently the nuclei were stained with 2 µg/mL DAPI for 10 min at room temperature before imaging. Cells were imaged by LSM 980 confocal laser scanning microscope. Images were processed with Zen 3.2 software (Zeiss).

Row | Substance | carrier transport through hydrophobic bulk phase (U-tube) [1] | FITCArg8 uptake (confocal fluorescence microscopy) (CHO-K1 cells)
1 | K4[α-P^VV^VW^VI11O40]·4H2O [[PVW11]^4-] | can seize and transport a hydrophilic cargo even through a hydrophobic bulk phase | strong diffuse fluorescence
2 | K4[α-Si^IVMo^VIW^VI11O40]·24H2O [[SiMoW11]^4-] | can seize and transport a hydrophilic cargo even through a hydrophobic bulk phase | strong diffuse fluorescence
